Test results from the supplement of paper PMC5579334.

How the values were obtained:
HS-PSS [1] = experiment: drug sensitivity score (DSS, CellTox-Green cytotoxicity, 72 h) (DSS (dimensionless)); higher = more cytotoxic; extreme values may be limits of the assay
Outline: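 MPNST cell lines and primary human Schwann cells were grown for 72 h at 37 °C in 384-well plates containing five 10-fold compound dilutions. CellTox-Green, added before seeding at a final 1:1000 dilution, gave fluorescence from DNA released by disrupted cells, and signals were scaled to vehicle and positive-control wells. Curves were fitted with a four-parameter logistic model. Drug sensitivity score and relative IC50 come from these fits, with IC50 censored at the top concentration.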

YST-1 [2] = experiment: drug sensitivity score (DSS, CellTiter-Glo viability, 72 h) (DSS (dimensionless)); higher = more sensitive; extreme values may be limits of the assay
Outline: (§1)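 For this screen, 384-well plates were preprinted with each compound at five concentrations in 10-fold steps and seeded with MPNST cell lines or primary human Schwann cells at 750–1000 cells per well. Incubation lasted 72 h at 37 °C, 5% CO2, and CellTiter-Glo ATP luminescence, scaled between vehicle and positive-control wells and averaged over duplicates where available, served as viability. Logistic fits with four parameters were applied. Relative IC50 (censored at the top concentration) and drug sensitivity score derive from these fits, and percent inhibition is at the top concentration.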

HS-PSS [3] = experiment: as above
Outline: as §1

HS-Sch-2 [4] = experiment: as above
Outline: as §1

YST-1 [5] = experiment: % inhibition of CellTiter-Glo viability at highest tested concentration (72 h), relative to DMSO and benzethonium chloride controls; higher = more inhibition
Outline: as §1

HS-PSS [6] = experiment: as above
Outline: as §1

HS-Sch-2 [7] = experiment: as above
Outline: as §1

Compound | drug sensitivity score (HS-PSS [1]) | drug sensitivity score (YST-1 [2]) | drug sensitivity score (HS-PSS [3]) | drug sensitivity score (HS-Sch-2 [4]) | % inhibition (YST-1 [5]) [%] | % inhibition (HS-PSS [6]) [%] | % inhibition (HS-Sch-2 [7]) [%]
COc1ccc(COc2cc3oc(=O)c4cc(C(C)O)ccc4c3cc2OC)cc1 (stereo not given) [Palomid-529] (max concentration tested 10000 nM) | 0 | 0 | 0 | 0 | 10.2 | 2.33 | -4.31
N[C@@H](Cc1ccc(N(CCCl)CCCl)cc1)C(=O)O [Melphalan] (max concentration tested 12500 nM) | 0 | 0 | 0 | 0 | 3.44 | 3.32 | 7.23
C[C@@H]1C[C@H]2O[C@@H]2/C=C\C=C\C(=O)Cc2c(Cl)c(O)cc(O)c2C(=O)O1 [Radicicol] (max concentration tested 10000 nM) | 4.33 | 12.1 | 12.9 | 16.3 | 94 | 86.2 | 99.8
CC(C)[C@@H](CS(=O)(=O)C(C)C)N1C(=O)[C@@](C)(CC(=O)O)C[C@H](c2cccc(Cl)c2)[C@H]1c1ccc(Cl)cc1 [AMG-232] (max concentration tested 1000 nM) | 0 | 8.01 | 0.61 | 0 | 96.6 | 22.4 | -6.16
Cn1ncc(Cl)c1-c1cc(C(=O)N[C@H](CN)Cc2cccc(F)c2)sc1Cl [Afuresertib] (max concentration tested 1000 nM) | 0 | 1.39 | 0.07 | 0 | 32 | 13.3 | 1.85
COc1cc(OC)c(/C=C/S(=O)(=O)Cc2ccc(OC)c(NCC(=O)O)c2)c(OC)c1 [Rigosertib] (max concentration tested 10000 nM) | 0 | 21.8 | 14.8 | 21.8 | 79.3 | 61.8 | 87.6
CCS(=O)(=O)N1CC(CC#N)(n2cc(-c3ncnc4[nH]ccc34)cn2)C1 [Baricitinib] (max concentration tested 2500 nM) | 0 | 0 | 0 | 0 | -0.02 | 1.87 | 4.94
Cc1c(NC(=O)OC[C@@H]2COCCN2)cn2ncnc(Nc3ccc4c(cnn4Cc4cccc(F)c4)c3)c12 (max concentration tested 10000 nM) | 0.6 | 2.68 | 5.43 | 3.4 | 26.8 | 71.3 | 44.4
COc1cc(C(=O)O)ccc1NC(=O)[C@@H]1N[C@@H](CC(C)(C)C)[C@](C#N)(c2ccc(Cl)cc2F)[C@H]1c1cccc(Cl)c1F [Idasanutlin] (max concentration tested 10000 nM) | 0 | 25.1 | 5.43 | 0 | 98.6 | 26.1 | -12.1
COc1cccc2c1c(O)c(C(=O)N(C)c1ccc(C(F)(F)F)cc1)c(=O)n2C [Tasquinimod] (max concentration tested 10000 nM) | 0 | 3.88 | 0.69 | 0 | 20.7 | 11.8 | 8.66
OCCn1cc(-c2cnc3nnn(Cc4ccc5ncccc5c4)c3n2)cn1 (max concentration tested 2500 nM) | 0 | 0.62 | 0.05 | 0 | 18.5 | 9.08 | 0.31
O=C(O)c1ccc(CN2CCC(CN[C@@H]3C[C@H]3c3ccccc3)CC2)cc1 (max concentration tested 10000 nM) | 0 | 0 | 0 | 0 | -3.86 | 2.06 | -4.91
C[C@H](Nc1ncnc2nc[nH]c12)c1cc2cccc(Cl)c2c(=O)n1-c1ccccc1 [Duvelisib] (max concentration tested 500 nM) | 0.21 | 0.82 | 0 | 0.22 | 19.5 | -0.01 | 13.6
CN(CC(=O)N(Cc1ccc(C2CCCCC2)cc1)c1ccc(C(=O)O)cc1)S(=O)(=O)c1c(F)c(F)c(F)c(F)c1F [SH-4-54] (max concentration tested 25000 nM) | 3.21 | 10.3 | 5.78 | 7.18 | 100 | 98.7 | 93
CCNC(=O)C[C@@H]1N=C(c2ccc(Cl)cc2)c2cc(OC)ccc2-n2c(C)nnc21 (max concentration tested 10000 nM) | 0 | 10.2 | 7.28 | 8.49 | 65.3 | 58.4 | 63.1
Cc1cc([C@@H](C)Nc2ccccc2C(=O)O)c2nc(N3CCOCC3)cc(=O)n2c1 [AZD-6482] (max concentration tested 2500 nM) | 0 | 0.53 | 0 | 0 | 17.1 | 9.25 | 0.36
CCNC(=O)c1noc(-c2cc(C(C)C)c(O)cc2O)c1-c1ccc(CN2CCOCC2)cc1 [Luminespib] (max concentration tested 1000 nM) | 3.7 | 19.5 | 14 | 23.5 | 79.6 | 82.2 | 98.9
CNC(=O)c1c(F)cccc1Nc1nc(Nc2cc3c(cc2OC)CCN3C(=O)CN(C)C)nc2[nH]ccc12 (max concentration tested 2500 nM) | 1.53 | 11.8 | 13.9 | 0.22 | 66.3 | 59.1 | 11.8
c1ccc(Cn2c(-c3ccc(OC[C@H](C4CCNCC4)n4c(-c5ccccc5)nc5ccccc54)cc3)nc3ccccc32)cc1 [deltarasin] (max concentration tested 10000 nM) | 5.68 | 5.29 | 6.88 | 5.77 | 100 | 101 | 101
NCCNc1ccc(NCCN)c2c1C(=O)c1ccncc1C2=O [Pixantrone] (max concentration tested 10000 nM) | 0 | 2.81 | 4.51 | 2.43 | 54.6 | 77.4 | 50.7
N[C@@H]1CCCN(c2c(/C=C3\SC(=O)NC3=O)cccc2-c2ccccc2)C1 [AZD1208] (max concentration tested 10000 nM) | 0 | 7.54 | 0 | 0 | 38.7 | -5.48 | -3.67
Cn1cc(-c2ccc3nnc(Sc4ccc5ncccc5c4)n3n2)cn1 [SGX-523] (max concentration tested 5000 nM) | 0 | 0 | 0 | 0 | -2.5 | 2.63 | 5.27
CN[C@@H](C)C(=O)N[C@H](C(=O)N1CCC[C@H]1c1nc(C(=O)c2ccc(F)cc2)cs1)C1CCCCC1 [LCL161] (max concentration tested 25000 nM) | 0.11 | 3.14 | 2.18 | 2.38 | 38.7 | 27.8 | 44.2
CCn1c(-c2nonc2N)nc2c(C#CC(C)(C)O)ncc(OC[C@H]3CCCNC3)c21 (max concentration tested 10000 nM) | 0 | 0 | 0 | 3.35 | -24.9 | 3.9 | 39
CNc1nc(-c2ccc3c(N)n[nH]c3c2)cc(N2C[C@@H](C(=O)NC3CCCCC3)CC[C@H]2C)n1 (max concentration tested 10000 nM) | 0 | 7.15 | 1.2 | 0.1 | 54 | 27.7 | 14.3
Cc1nc(NC(=O)N2CCC[C@H]2C(N)=O)sc1-c1ccnc(C(C)(C)C(F)(F)F)c1 [Alpelisib] (max concentration tested 2500 nM) | 0 | 7.32 | 0.35 | 1.18 | 63.6 | 13 | 21.2
COc1cc2c(Nc3ccc(Cl)c(Cl)c3F)ncnc2cc1OC[C@H]1C[C@@H]2CN(C)C[C@@H]2C1 [XL-647] (max concentration tested 1000 nM) | 0 | 1.63 | 0.99 | 1.16 | 26.5 | 30.7 | 31.1
c1cc(CN2CCCNCCNCCCNCC2)ccc1CN1CCCNCCNCCCNCC1 [Plerixafor] (max concentration tested 10000 nM) | 0 | 0 | 0.55 | 0 | -8.03 | 14.2 | 5.96
O=C(O)c1ccc2c(c1)nc(Nc1cccc(Cl)c1)c1ccncc12 [Silmitasertib] (max concentration tested 10000 nM) | 0 | 6.93 | 4.36 | 2.47 | 97.4 | 66.2 | 52.4
CCN(CC)CCCC(C)Nc1c2ccc(Cl)cc2nc2ccc(OC)cc12 (stereo not given) [Mepacrine] (max concentration tested 50000 nM) | 18 | 17.3 | 18.5 | 18.5 | 101 | 101 | 101
